The text below walks through data of article PMC2941766 (Molecular pharmaceutics, 2010).

Like-named read-outs stand apart in the source and are kept apart here.

Format in all cases: in vitro ADME
For one series, the target named is T1, UGT1A1 (Homo sapiens, UniProt P22309).
T1 sequence (P22309 26-533): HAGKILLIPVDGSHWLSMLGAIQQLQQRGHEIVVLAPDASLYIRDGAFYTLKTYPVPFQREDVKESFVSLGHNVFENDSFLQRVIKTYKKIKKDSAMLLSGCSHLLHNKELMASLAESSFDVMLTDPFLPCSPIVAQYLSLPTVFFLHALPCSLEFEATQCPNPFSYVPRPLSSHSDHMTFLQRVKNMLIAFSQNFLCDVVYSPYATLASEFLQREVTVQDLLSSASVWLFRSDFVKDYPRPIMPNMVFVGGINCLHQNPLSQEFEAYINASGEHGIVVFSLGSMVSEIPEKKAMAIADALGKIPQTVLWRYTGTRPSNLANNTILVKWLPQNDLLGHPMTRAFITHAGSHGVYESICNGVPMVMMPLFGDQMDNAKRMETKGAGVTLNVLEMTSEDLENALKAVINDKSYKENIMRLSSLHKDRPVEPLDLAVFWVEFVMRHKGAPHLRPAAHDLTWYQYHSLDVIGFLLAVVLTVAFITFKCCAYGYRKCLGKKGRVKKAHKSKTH
Nature of the series: Glucuronidation by expressed human UGT1A1.

In the next series the target is T2, UGT1A10 (Homo sapiens, UniProt Q9HAW8).
T2 sequence (Q9HAW8 26-530): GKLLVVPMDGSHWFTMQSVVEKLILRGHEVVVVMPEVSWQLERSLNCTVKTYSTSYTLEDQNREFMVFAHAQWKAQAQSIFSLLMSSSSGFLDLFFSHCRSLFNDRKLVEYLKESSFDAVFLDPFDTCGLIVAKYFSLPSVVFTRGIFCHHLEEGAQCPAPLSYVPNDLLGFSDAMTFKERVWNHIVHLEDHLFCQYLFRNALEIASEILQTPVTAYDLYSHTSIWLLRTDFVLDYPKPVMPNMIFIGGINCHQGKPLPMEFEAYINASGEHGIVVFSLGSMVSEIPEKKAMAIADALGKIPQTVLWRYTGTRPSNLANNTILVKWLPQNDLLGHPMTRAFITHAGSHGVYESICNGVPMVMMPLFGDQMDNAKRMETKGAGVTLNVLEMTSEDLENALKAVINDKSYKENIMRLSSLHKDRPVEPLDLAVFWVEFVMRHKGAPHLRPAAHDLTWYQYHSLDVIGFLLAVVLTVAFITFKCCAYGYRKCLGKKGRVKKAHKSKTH
The experiment in a line: Glucuronidation by expressed human UGT1A10.

Series [1] is described as follows: Glucuronidation by pooled human liver microsomes. A general note: Liver microsomes are vesicles of endoplasmic reticulum, rich in cytochrome P450 enzymes.
The next series deals with T3, UGT1A7 (Homo sapiens, UniProt Q9HAW7).
T3 sequence (Q9HAW7 26-530): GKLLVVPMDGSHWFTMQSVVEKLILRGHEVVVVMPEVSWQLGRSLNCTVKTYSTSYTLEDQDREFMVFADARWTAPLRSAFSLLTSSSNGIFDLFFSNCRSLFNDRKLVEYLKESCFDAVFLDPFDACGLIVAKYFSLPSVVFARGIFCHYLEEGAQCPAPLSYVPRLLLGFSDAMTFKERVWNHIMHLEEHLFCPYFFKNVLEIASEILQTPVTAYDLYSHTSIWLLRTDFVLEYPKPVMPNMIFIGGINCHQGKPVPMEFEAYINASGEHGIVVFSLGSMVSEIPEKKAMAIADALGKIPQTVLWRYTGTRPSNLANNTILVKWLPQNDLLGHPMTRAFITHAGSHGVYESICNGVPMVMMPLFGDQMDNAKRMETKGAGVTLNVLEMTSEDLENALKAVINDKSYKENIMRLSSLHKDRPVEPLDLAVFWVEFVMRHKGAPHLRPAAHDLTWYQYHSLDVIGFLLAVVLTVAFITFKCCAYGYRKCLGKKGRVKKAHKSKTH
The experiment in a line: Glucuronidation by expressed human UGT1A7.

A further series concerns the target T4, UGT1A8 (Homo sapiens, UniProt Q9HAW9).
T4 sequence (Q9HAW9 26-530): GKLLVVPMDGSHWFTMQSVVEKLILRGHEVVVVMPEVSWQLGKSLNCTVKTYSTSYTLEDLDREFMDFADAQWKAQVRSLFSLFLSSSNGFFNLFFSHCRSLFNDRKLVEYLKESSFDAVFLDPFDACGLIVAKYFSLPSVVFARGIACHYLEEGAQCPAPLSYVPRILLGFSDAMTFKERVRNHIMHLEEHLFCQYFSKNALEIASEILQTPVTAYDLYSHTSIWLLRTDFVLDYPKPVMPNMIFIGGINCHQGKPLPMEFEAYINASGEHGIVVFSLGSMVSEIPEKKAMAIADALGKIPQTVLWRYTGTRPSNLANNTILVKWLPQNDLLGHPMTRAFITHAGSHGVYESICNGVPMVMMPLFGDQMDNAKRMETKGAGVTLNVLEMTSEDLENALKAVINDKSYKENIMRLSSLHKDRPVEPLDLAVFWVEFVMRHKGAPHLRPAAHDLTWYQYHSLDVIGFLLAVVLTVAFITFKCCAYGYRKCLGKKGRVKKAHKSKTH
Nature of the series: Glucuronidation by expressed human UGT1A8.

For a further series, the target named is T5, UGT1A9 (Homo sapiens, UniProt O60656).
T5 sequence (O60656 26-530): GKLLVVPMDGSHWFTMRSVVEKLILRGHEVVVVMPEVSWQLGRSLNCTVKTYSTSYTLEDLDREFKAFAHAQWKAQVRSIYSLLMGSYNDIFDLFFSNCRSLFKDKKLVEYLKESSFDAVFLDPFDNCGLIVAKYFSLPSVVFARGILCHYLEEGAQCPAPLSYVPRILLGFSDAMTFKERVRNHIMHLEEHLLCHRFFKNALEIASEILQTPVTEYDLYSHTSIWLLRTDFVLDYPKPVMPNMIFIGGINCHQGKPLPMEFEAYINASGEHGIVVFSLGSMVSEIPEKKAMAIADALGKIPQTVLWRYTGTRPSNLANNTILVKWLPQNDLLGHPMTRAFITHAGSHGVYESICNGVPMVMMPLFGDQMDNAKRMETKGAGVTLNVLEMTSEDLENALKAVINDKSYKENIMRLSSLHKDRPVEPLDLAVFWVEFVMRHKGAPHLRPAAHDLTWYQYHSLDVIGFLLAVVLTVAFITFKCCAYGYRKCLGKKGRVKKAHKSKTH
Nature of the series: Glucuronidation by expressed human UGT1A9.

The next series has as its target T6, UGT2B7 (Homo sapiens, UniProt P16662).
T6 sequence (P16662 24-529): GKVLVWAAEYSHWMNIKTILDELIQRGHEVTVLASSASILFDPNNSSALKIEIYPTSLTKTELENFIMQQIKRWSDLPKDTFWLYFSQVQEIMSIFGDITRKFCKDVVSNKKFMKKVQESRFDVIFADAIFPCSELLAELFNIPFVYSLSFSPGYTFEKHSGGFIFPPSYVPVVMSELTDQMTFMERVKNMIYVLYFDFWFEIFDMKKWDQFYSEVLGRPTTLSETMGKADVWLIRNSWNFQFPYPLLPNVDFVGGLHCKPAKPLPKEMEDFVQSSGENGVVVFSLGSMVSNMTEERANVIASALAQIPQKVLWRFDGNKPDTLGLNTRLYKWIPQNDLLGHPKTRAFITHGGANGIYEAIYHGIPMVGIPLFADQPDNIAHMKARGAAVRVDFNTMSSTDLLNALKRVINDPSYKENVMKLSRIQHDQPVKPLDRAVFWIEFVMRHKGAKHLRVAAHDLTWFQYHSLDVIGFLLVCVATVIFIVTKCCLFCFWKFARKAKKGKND
Nature of the series: Glucuronidation by expressed human UGT2B7. As to conditions: for glucuronidation rate: human, pH 7.4.

Series [2] can be described thus: Glucuronidation by pooled human intestinal microsomes. The note with it: human, 2.5 μM, pH 7.4.
Setting [3] is: human liver microsomes, 2.5μM substrate.
Setting [4] is: UGT2B7, conclusion from fingerprints.

As for `O=c1cc(-c2ccc(O)cc2)oc2ccccc12` [4′-HF, 4′-hydroxyflavone], the glucuronidation rate at UGT1A1 (UGT1A1, 2.5μM substrate, 37°C) was 1.34 ±0.21 nmol per min per mg of protein; at UGT1A10 (UGT1A10, 10 μM substrate, 37°C), 0.30±0.05 nmol per min per mg of protein; in series [1] (setting [3]), 0.80±0.05 nmol per min per mg of protein; at UGT1A7 (UGT1A7, 2.5μM substrate, 37°C), 0 nmol per min per mg of protein; at UGT1A8 (UGT1A8, 2.5μM substrate, 37°C), 0.00±0.00 nmol per min per mg of protein; on UGT1A9 (UGT1A9, 2.5 μM substrate, 37°C) it was “not detectable”. Also, the “glucuronidation (detectable metabolism)” value on UGT1A9 (UGT1A9, 35 μM substrate) was “no detectable metabolism”.
As to `O=c1c(O)c(-c2ccc(O)cc2)oc2ccccc12` [3,4′-diHF, 3,4′-dihydroxyflavone], the “substrate of UGT2B7” value on UGT2B7 (setting [4]) is “substrates”.
In the case of `O=c1cc(-c2ccccc2)oc2cc(O)ccc12` [7-HF, 7-hydroxyflavone], the glucuronidation rate on UGT1A1 (UGT1A1, 2.5μM substrate, 37°C) is reported as 1.73 ±0.21 nmol per min per mg of protein; on UGT1A10 (UGT1A10, 10 μM substrate, 37°C) it was 0.17±0.03 nmol per min per mg of protein; in series [1] (setting [3]), 1.39±0.01 nmol per min per mg of protein; at UGT1A7 (UGT1A7, 2.5μM substrate, 37°C), 0 nmol per min per mg of protein; on UGT1A8 (UGT1A8, 2.5μM substrate, 37°C), 0.23±0.03 nmol per min per mg of protein; at UGT1A9 (UGT1A9, 2.5 μM substrate, 37°C) it was 1.30±0.09 nmol per min per mg of protein.
`O=c1cc(-c2cccc(O)c2)oc2ccccc12` [3′-HF, 3′-hydroxyflavone]: the glucuronidation rate at UGT1A1 (UGT1A1, 2.5μM substrate, 37°C) is 1.59 ±0.26 nmol per min per mg of protein; at UGT1A10 (UGT1A10, 10 μM substrate, 37°C), 0.86±0.08 nmol per min per mg of protein; in series [1] (setting [3]), 3.14±0.01 nmol per min per mg of protein; at UGT1A7 (UGT1A7, 2.5μM substrate, 37°C), 1.44±0.20 nmol per min per mg of protein; on UGT1A8 (UGT1A8, 2.5μM substrate, 37°C), 0.27 ±0.02 nmol per min per mg of protein; at UGT1A9 (UGT1A9, 2.5 μM substrate, 37°C), 0.48±0.13 nmol per min per mg of protein.
Consider `O=c1cc(-c2ccccc2)oc2ccc(O)cc12` [6-HF, 6-hydroxyflavone], for which the glucuronidation rate was 1.50±0.18 nmol per min per mg of protein on UGT1A1 (UGT1A1, 2.5μM substrate, 37°C); 0.62±0.07 nmol per min per mg of protein at UGT1A10 (UGT1A10, 10 μM substrate, 37°C); 0.91±0.04 nmol per min per mg of protein in series [1] (setting [3]); 0 nmol per min per mg of protein at UGT1A7 (UGT1A7, 2.5μM substrate, 37°C); 0.87±0.12 nmol per min per mg of protein at UGT1A8 (UGT1A8, 2.5μM substrate, 37°C); 0.10±0.00 nmol per min per mg of protein at UGT1A9 (UGT1A9, 2.5 μM substrate, 37°C).
Take `O=c1c(O)c(-c2ccccc2)oc2cccc(O)c12` [3,5-diHF, 3,5-dihydroxyflavone]: at UGT2B7 (setting [4]), the “substrate of UGT2B7” value is “substrates”.
For `O=c1cc(-c2ccccc2)oc2cccc(O)c12` [5-HF, 5-hydroxyflavone], the “substrate of UGT2B7” value on UGT2B7 is reported as “substrates”. In addition, the glucuronidation rate at UGT2B7 (2.5 μM) is recorded as 0.20±0.01 nmol per min per mg of protein; at UGT2B7 (10 μM) it was 0.40±0.02 nmol per min per mg of protein; at UGT2B7 (35 μM), 0.11±0.00 nmol per min per mg of protein; on UGT1A1 (human, 2.5 μM, pH 7.4), 0.28±0.00 nmol per min per mg of protein; at UGT1A1 (human, 10 μM, pH 7.4), 0.28±0.01 nmol per min per mg of protein; on UGT1A1 (human, 35 μM, pH 7.4), 0.308±0.02 nmol per min per mg of protein. Further, the glucuronidation rate at UGT1A10 (human, 10 μM, pH 7.4) is recorded as 0.12±0.01 nmol per min per mg of protein; in series [1] (human, 2.5 μM, pH 7.4) it was 0.00±0.00 nmol per min per mg of protein; on UGT1A7 (human, 2.5 μM, pH 7.4), 0 nmol per min per mg of protein; on UGT1A8 (human, 2.5 μM, pH 7.4), 0.28±0.04 nmol per min per mg of protein; at UGT1A9 (human, 2.5 μM, pH 7.4), 0.29±0.01 nmol per min per mg of protein; in series [2] it was 0.49±0.06 nmol per min per mg of protein.
Consider `O=c1c(O)c(-c2ccccc2)oc2cc(O)ccc12` [3,7-diHF, 3,7-dihydroxyflavone], for which, at UGT2B7 (setting [4]), the “substrate of UGT2B7” value was “substrates”.
Consider `O=c1cc(-c2ccccc2O)oc2ccccc12` [2′-HF, 2′-hydroxyflavone], for which the glucuronidation rate is given as 1.28±0.12 nmol per min per mg of protein at UGT1A1 (UGT1A1, 2.5μM substrate, 37°C); 0.09±0.01 nmol per min per mg of protein at UGT1A10 (UGT1A10, 10 μM substrate, 37°C); 0.97±0.03 nmol per min per mg of protein in series [1] (setting [3]); 1.13±0.11 nmol per min per mg of protein on UGT1A7 (UGT1A7, 2.5μM substrate, 37°C); 1.18±0.26 nmol per min per mg of protein at UGT1A8 (UGT1A8, 2.5μM substrate, 37°C); 0.43±0.06 nmol per min per mg of protein at UGT1A9 (UGT1A9, 2.5 μM substrate, 37°C).
